This is an account of results in patent publication US4406902A, “Dipeptidase inhibitors” (Merck & Co., Inc., priority 1981, dated 1983).

The nature of data set [1]: disposition studies with thienamycin, its natural analogs and semi-synthetic derivatives (urinary recovery, plasma half-life). In kind it is in vivo. The settings on record: mouse, rat, dog, chimpanzee, Rhesus monkey. The protocol:
Chem., 205 65 (1932); see also Greenstein, J. P., Advances in Enzymology, Vol. VIII, Wiley-Interscience, (1948), New York, and Campbell, B. J.; Lin, Y-C., Davis, R. V. and Ballew, E., "The Purification and Properties of Particulate Renal Dipeptidase", Biochim. Biophys. Acta., 118, 371 (1966).
Urinary recovery of thienamycin was measured in all cases with the use of a cylinder or disc diffusion assay, conducted in a manner described in U.S. Pat. No. 3,950,357. This bioassay, with Staphylococcus aureus ATCC 6538 as the test organism, has a useful response range from 0.04 μg/ml to 3.0 μg/ml.

Data set [2] deals with T1, renal dipeptidase (E.C.3.4.13.11) (Sus scrofa, UniProt P22412).
T1 construct: solubilized preparation of dipeptidase isolated from hog kidneys; from tissue; host or cells: hog kidney (solubilized, lyophilized enzyme preparation)
T1 sequence (P22412 17-409): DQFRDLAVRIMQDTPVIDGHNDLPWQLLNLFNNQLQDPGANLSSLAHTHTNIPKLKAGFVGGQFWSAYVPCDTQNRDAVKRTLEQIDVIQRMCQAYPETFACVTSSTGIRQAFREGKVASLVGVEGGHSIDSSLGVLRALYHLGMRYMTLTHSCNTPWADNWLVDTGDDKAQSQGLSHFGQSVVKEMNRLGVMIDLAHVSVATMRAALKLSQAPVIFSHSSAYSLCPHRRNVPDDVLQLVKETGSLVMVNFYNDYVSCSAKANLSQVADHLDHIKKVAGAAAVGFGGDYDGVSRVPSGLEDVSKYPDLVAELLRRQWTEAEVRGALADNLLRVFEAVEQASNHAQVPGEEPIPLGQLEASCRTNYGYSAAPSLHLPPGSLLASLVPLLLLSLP
Description: in vitro screen: inhibition of hydrolysis of glycyldehydrophenylalanine (GDP) by solubilized dipeptidase from hog kidneys. In kind it is biochemical. The settings on record: GDP 0.05 mM; pH 7.1; 37° C.; hog kidney dipeptidase; read-out: inhibitor binding constant, Ki (ki). As to the method:
This measured the ability of compounds to inhibit hydrolysis of glycyldehydrophenylalanine (GDP) by a solubilized preparation of dipeptidase isolated from hog kidneys. The procedure is as follows: to a 1 ml. system containing 50 mM "MOPS" (3-(N-morpholino)propanesulfonic acid) buffer, pH 7.1, is added 5 μg of lyophilized enzyme, and the test compound at a final concentration of 0.1 mM. After a five minute incubation at 37° C., GDP is added to a final concentration of 0.05 mM. […] Inhibition of the enzyme is gauged by comparison to a standard run containing no inhibitor and is expressed as the inhibitor binding constant, Ki.

The target of the next data set is T2, renal dipeptidase (Sus scrofa, UniProt P22412).
T2 construct: GPI-anchored homodimer
T2 sequence (P22412 17-384): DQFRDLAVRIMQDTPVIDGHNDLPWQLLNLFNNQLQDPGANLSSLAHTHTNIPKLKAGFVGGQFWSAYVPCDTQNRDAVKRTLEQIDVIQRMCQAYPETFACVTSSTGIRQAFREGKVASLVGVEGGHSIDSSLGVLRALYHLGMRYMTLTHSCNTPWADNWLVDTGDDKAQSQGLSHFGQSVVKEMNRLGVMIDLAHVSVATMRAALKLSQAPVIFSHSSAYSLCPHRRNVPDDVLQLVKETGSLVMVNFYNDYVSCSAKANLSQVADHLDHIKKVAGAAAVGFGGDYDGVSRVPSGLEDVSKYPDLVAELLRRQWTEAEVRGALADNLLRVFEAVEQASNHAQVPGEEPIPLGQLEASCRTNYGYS
Description: hydrolysis of GDP and thienamycin as substrates by renal dipeptidase. In kind it is biochemical, hog. The settings on record: GDP compared with thienamycin.

Take `C[C@@H](O)[C@H]1C(=O)N2C(C(=O)O)=C(SCCN)C[C@H]12` [thienamycin]: in data set [1], the plasma half-life result is “short plasma half-lives” and the urinary recovery entry was “low urinary recovery”.
For the molecule `CC1(C)CC1C(=O)N/C(=C\CCCCSc1ncccc1C(=O)O)C(=O)O` (racemic) [Example 3, Racemic Z-7-(3-carboxy-2-pyridylthio)-2-(2,2-dimethylcyclopropanecarboxamido)-2-heptenoic acid], the Ki in data set [2] is 40 nM.
Still for that read-out and setting: then `CC1(C)CC1C(=O)N/C(=C\CCCCSc1ncccc1O)C(=O)O` (single isomer, unassigned; (+)) [Example 2, (+)-Z-2-(2,2-Dimethylcyclopropanecarboxamido)-7-(3-hydroxy-2-pyridylthio)-2-heptenoic acid], with 20 nM.
The same measure, in the same setting: then `CC1(C)CC1C(=O)N/C(=C\CCCCSc1ccc(C(=O)O)cn1)C(=O)O` (racemic) [Example 4, Racemic Z-7-(5-carboxy-2-pyridylthio)-2-(2,2-dimethylcyclopropanecarboxamido)-2-heptenoic acid], with 250 nM.
As for `NCC(=O)NC(=Cc1ccccc1)C(=O)O` [GDP, glycyldehydrophenylalanine], on renal dipeptidase, the “maximal velocity of hydrolysis by renal dipeptidase” value is on record as “much higher maximal velocity of hydrolysis”.
